The source of these data is ChEMBL document CHEMBL1146079, “Inhibition of human acetyl- and butyrylcholinesterase by novel carbamates of (-)- and (+)-tetrahydrofurobenzofuran and methanobenzodioxepine” (J Med Chem, 2006).

pIC50: −log10 of the molar value.

Sequence of Cholinesterase (P06276 whole entry): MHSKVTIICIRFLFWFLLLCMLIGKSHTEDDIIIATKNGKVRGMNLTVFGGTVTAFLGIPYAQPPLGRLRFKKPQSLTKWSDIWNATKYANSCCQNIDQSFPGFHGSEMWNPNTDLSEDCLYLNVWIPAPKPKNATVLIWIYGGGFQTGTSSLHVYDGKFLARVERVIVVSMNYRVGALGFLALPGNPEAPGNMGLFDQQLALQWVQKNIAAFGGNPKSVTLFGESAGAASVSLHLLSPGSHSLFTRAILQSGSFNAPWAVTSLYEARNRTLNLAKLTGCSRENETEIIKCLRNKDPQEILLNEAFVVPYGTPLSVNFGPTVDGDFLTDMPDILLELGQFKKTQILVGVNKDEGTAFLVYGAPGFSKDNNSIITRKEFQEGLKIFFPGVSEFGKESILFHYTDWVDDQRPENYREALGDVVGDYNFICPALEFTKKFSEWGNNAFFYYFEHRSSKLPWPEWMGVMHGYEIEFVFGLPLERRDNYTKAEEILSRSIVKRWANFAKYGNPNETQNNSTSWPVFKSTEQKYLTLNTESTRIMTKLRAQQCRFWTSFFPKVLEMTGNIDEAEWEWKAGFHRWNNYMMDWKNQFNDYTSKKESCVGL

One assay deals with Acetylcholinesterase (Homo sapiens, UniProt P22303).
Sequence of Acetylcholinesterase (P22303 whole entry): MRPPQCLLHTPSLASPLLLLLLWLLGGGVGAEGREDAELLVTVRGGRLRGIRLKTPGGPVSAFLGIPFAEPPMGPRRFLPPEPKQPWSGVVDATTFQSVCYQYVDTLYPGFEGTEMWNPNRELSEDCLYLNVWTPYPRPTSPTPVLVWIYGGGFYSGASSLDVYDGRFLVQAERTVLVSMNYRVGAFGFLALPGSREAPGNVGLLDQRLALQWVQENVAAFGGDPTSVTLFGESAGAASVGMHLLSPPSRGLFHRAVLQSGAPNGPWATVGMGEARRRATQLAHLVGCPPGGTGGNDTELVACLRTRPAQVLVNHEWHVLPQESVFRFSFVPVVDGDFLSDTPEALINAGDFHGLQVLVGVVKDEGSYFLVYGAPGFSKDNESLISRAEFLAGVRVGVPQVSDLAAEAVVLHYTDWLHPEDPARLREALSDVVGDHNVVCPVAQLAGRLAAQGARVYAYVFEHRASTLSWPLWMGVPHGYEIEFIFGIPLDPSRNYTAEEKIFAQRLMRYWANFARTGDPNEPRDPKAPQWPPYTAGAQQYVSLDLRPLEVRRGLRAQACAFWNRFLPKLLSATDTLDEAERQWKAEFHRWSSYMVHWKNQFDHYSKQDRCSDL
Description: Anticholinesterase activity against human erythrocyte AChE
For the compound `CCNC(=O)Oc1ccc2c(c1)[C@]1(C)CCO[C@@H]1O2`, the pIC50 was 7.00. The same measure, in the same setting: in the case of `CC(C)c1ccc(NC(=O)Oc2ccc3c(c2)[C@]2(C)CO[C@@H](C2)O3)cc1` it was 5.46. Take `Cc1ccccc1NC(=O)Oc1ccc2c(c1)[C@@]1(C)CCO[C@H]1N2C`: the pIC50 is 6.85. The same measure, in the same setting: in the case of `CCNC(=O)Oc1ccc2c(c1)[C@]1(C)CCN(C)[C@@H]1N2C` it was 7.03; in that of `CNC(=O)Oc1ccc2c(c1)[C@@]1(C)CCO[C@H]1N2C`, 7.25; in that of `CCNC(=O)Oc1ccc2c(c1)[C@]1(C)CO[C@@H](C1)O2`, 5.62. `Cc1ccccc1NC(=O)Oc1ccc2c(c1)[C@]1(C)CO[C@@H](C1)O2` had a pIC50 of 7.01.

In turn, `CCNC(=O)Oc1ccc2c(c1)[C@@]1(C)CCO[C@H]1O2` had a pIC50 of 6.31. Same read-out and setting: in the case of `Cc1ccccc1NC(=O)Oc1ccc2c(c1)[C@@]1(C)CO[C@H](C1)O2` it was 7.42; in that of `CCNC(=O)Oc1ccc2c(c1)[C@@]1(C)CO[C@H](C1)O2`, 6.21. Same read-out and setting: next, `Cc1ccccc1NC(=O)Oc1ccc2c(c1)[C@@]1(C)CCN(C)[C@H]1N2C`: 5.26. Same read-out and setting: in the case of `CCNC(=O)Oc1ccc2c(c1)[C@]1(C)CCO[C@@H]1N2C` it was 7.09; in that of `CC(C)c1ccc(NC(=O)Oc2ccc3c(c2)[C@]2(C)CCO[C@@H]2N3C)cc1`, 5.41.

The next assay concerns the target Cholinesterase (Homo sapiens, UniProt P06276).
Description: Anticholinesterase activity against human plasma BChE
As for `CC(C)c1ccc(NC(=O)Oc2ccc3c(c2)[C@@]2(C)CO[C@H](C2)O3)cc1`, the pIC50 is 7.82. On the same count and under the same terms, in the case of `CCNC(=O)Oc1ccc2c(c1)[C@]1(C)CCO[C@@H]1O2` it was 8.52. Turning to `CNC(=O)Oc1ccc2c(c1)[C@]1(C)CCO[C@@H]1N2C`, the pIC50 is 8.40.

For `CC(C)c1ccc(NC(=O)Oc2ccc3c(c2)[C@]2(C)CO[C@@H](C2)O3)cc1`, the pIC50 was 7.27.

For `Cc1ccccc1NC(=O)Oc1ccc2c(c1)[C@@]1(C)CCO[C@H]1N2C`, the pIC50 was 5.29. On the same count and under the same terms, next, `CCNC(=O)Oc1ccc2c(c1)[C@]1(C)CCN(C)[C@@H]1N2C`: 8.40; `CC(C)c1ccc(NC(=O)Oc2ccc3c(c2)[C@@]2(C)CCO[C@H]2N3C)cc1`: 7.64; `CNC(=O)Oc1ccc2c(c1)[C@@]1(C)CCO[C@H]1N2C`: 7.25. The same measure, in the same setting: next, `CCNC(=O)Oc1ccc2c(c1)[C@]1(C)CO[C@@H](C1)O2`: 6.92; `Cc1ccccc1NC(=O)Oc1ccc2c(c1)[C@@]1(C)CCO[C@H]1O2`: 4.44. In turn, `CC(C)c1ccc(NC(=O)Oc2ccc3c(c2)[C@@]2(C)CCO[C@H]2O3)cc1` showed a pIC50 of 7.40.

Compound `CC(C)c1ccc(NC(=O)Oc2ccc3c(c2)[C@]2(C)CCO[C@@H]2O3)cc1` showed a pIC50 of 7.89.

On to `CCNC(=O)Oc1ccc2c(c1)[C@@]1(C)CCO[C@H]1O2`, for which the pIC50 is 7.55. The same measure, in the same setting: in the case of `Cc1ccccc1NC(=O)Oc1ccc2c(c1)[C@@]1(C)CO[C@H](C1)O2` it was 4.28; in that of `CCNC(=O)Oc1ccc2c(c1)[C@@]1(C)CO[C@H](C1)O2`, 7.64.

For `CCNC(=O)Oc1ccc2c(c1)[C@]1(C)CCO[C@@H]1N2C`, the negative-log IC50 (pIC50) was 8.70. Still for that read-out and setting: in the case of `CC(C)c1ccc(NC(=O)Oc2ccc3c(c2)[C@]2(C)CCO[C@@H]2N3C)cc1` it was 7.77. On the same count and under the same terms, in the case of `Cc1ccccc1NC(=O)Oc1ccc2c(c1)[C@]1(C)CCO[C@@H]1O2` it was 4.94.

As usually defined, the pIC50 is −log10 of the IC50, conventionally taken in molar units. Low readings indicate a high IC50, high ones a low IC50.
